Test systems include Bacillus cereus; Escherichia coli; Staphylococcus aureus; Bacillus subtilis.
Holding throughout (assay): ≥ marks a high value that may be exact or a test limit, other limits are often not marked, values filed in µg/mL are converted to µM
The test system of test [1] is Escherichia coli ATCC 25922.
In test [2] the test system is Pseudomonas aeruginosa ATCC 27853.
Test [3] relates to Staphylococcus aureus ATCC 29213.
Test [4] concerns Candida albicans ATCC 2002.

In DBAASP one finds MIC data, which are given here for 16 molecules.

In brackets after ≈: the same amount, converted by molar mass.

As usually defined, the MIC is the smallest concentration in the dilution series that meets the test's criterion for growth inhibition. A high value points to a less susceptible organism. Turning to `CC[C@H](C)[C@H](NC(=O)[C@H](CCSC)NC(=O)[C@H](C)NC(=O)[C@@H]1CCCN1C(=O)[C@@H](NC(=O)[C@@H](NC(=O)[C@H](CCCCN)NC(=O)[C@@H](NC(=O)[C@H](CC(C)C)NC(=O)CNC(=O)CNC(=O)[C@H](CC(C)C)NC(=O)[C@@H](N)Cc1ccccc1)[C@@H](C)CC)[C@@H](C)CC)C(C)C)C(=O)N[C@@H](CS)C(=O)N[C@@H](C)C(=O)N[C@H](C(=O)N[C@H](C(=O)N[C@@H](CCCCN)C(=O)N[C@@H](CCCCN)C(=O)O)[C@@H](C)O)C(C)C` [FLGGLIKIVPAMICAVTKK], the MIC in test [1] stood at 128 µM (≈ 256 µg/mL); in test [2], 63.9 µM (≈ 128 µg/mL); in test [3] it was 63.9 µM (≈ 128 µg/mL).
With `CC(C)C[C@H](NC(=O)[C@H](CCCCN)NC(=O)[C@H](Cc1ccccc1)NC(=O)[C@@H](NC(=O)CNC(=O)CNC(=O)[C@H](CC(C)C)NC(=O)[C@@H](N)Cc1ccccc1)C(C)C)C(=O)N[C@@H](C)C(=O)N[C@@H](CO)C(=O)N[C@@H](CCCCN)C(=O)N[C@H](C(=O)N[C@@H](Cc1ccccc1)C(=O)N1CCC[C@H]1C(=O)N[C@@H](C)C(=O)N[C@H](C(=O)N[C@@H](Cc1ccccc1)C(=O)NCC(=O)N[C@@H](CCCCN)C(=O)N[C@H](C(=O)O)C(C)C)C(C)C)C(C)C` [FLGGVFKLASKVFPAVFGKV], the MIC with Bacillus cereus stood at 15.2 µM (≈ 32 µg/mL); in the test with Escherichia coli, 30.3 µM (≈ 64 µg/mL); with Staphylococcus aureus it was 30.3 µM (≈ 64 µg/mL).
Turning to `CC(C)C[C@H](NC(=O)[C@@H](N)Cc1ccccc1)C(=O)NCC(=O)N[C@H](C(=O)N[C@H](C(=O)N[C@@H](Cc1ccccc1)C(=O)N[C@@H](CCCCN)C(=O)N[C@@H](CCCCN)C(=O)N[C@@H](C)C(=O)N[C@@H](CO)C(=O)N[C@@H](CCCCN)C(=O)N[C@H](C(=O)N[C@@H](Cc1ccccc1)C(=O)N1CCC[C@H]1C(=O)N[C@@H](CCCCN)C(=O)N[C@H](C(=O)N[C@@H](Cc1ccccc1)C(=O)NCC(=O)N[C@@H](CCCCN)C(=O)N[C@H](C(=O)O)C(C)C)C(C)C)C(C)C)C(C)C)C(C)C` [FLGVVFKKASKVFPKVFGKV], the MIC is no less than 57.5 µM against Bacillus cereus, 57.5 µM (≈ 128 µg/mL) against Escherichia coli and greater than 57.5 µM in the test with Staphylococcus aureus.
Consider `CC(C)C[C@H](NC(=O)[C@H](CCCCN)NC(=O)[C@H](Cc1ccccc1)NC(=O)[C@@H](NC(=O)[C@@H](NC(=O)CNC(=O)[C@H](CC(C)C)NC(=O)[C@@H](N)Cc1ccccc1)C(C)C)C(C)C)C(=O)N[C@@H](C)C(=O)N[C@@H](CO)C(=O)N[C@@H](CCCCN)C(=O)N[C@H](C(=O)N[C@@H](Cc1ccccc1)C(=O)N1CCC[C@H]1C(=O)N[C@@H](C)C(=O)N[C@H](C(=O)N[C@@H](Cc1ccccc1)C(=O)NCC(=O)N[C@@H](CCCCN)C(=O)N[C@H](C(N)=O)C(C)C)C(C)C)C(C)C` [FLGVVFKLASKVFPAVFGKV], for which the figures for the MIC with Bacillus cereus, against Escherichia coli and with Staphylococcus aureus were 7.43 µM (≈ 16 µg/mL), 29.7 µM (≈ 64 µg/mL) and 1.86 µM (≈ 4 µg/mL), respectively.
`CC[C@H](C)[C@H](NC(=O)[C@H](CCCN=C(N)N)NC(=O)CNC(=O)[C@@H](NC(=O)[C@H](Cc1ccccc1)NC(=O)[C@@H]1CCCN1C(=O)[C@H](CC(C)C)NC(=O)[C@@H](N)Cc1ccccc1)C(C)C)C(=O)N[C@@H](C)C(=O)N[C@@H](CO)C(=O)N[C@@H](CCCCN)C(=O)N[C@H](C(=O)N[C@H](C(=O)N1CCC[C@H]1C(=O)N[C@@H](CO)C(=O)N[C@H](C(=O)N[C@H](C(=O)NCC(=O)N[C@@H](CCCCN)C(=O)N[C@H](C(=O)O)C(C)C)[C@@H](C)CC)C(C)C)C(C)C)C(C)C` [FLPFVGRIASKVVPSVIGKV]: the results for the MIC with Bacillus cereus and against Escherichia coli were no less than 121 µM and greater than 121 µM, respectively.
`CC[C@H](C)[C@H](NC(=O)[C@H](CC(C)C)NC(=O)[C@H](C)NC(=O)[C@H](CC(C)C)NC(=O)[C@H](CC(C)C)NC(=O)CN)C(=O)N[C@@H](CO)C(=O)N[C@@H](Cc1c[nH]c2ccccc12)C(=O)N[C@H](C(=O)N[C@@H](CCCCN)C(=O)N[C@@H](CCCN=C(N)N)C(=O)N[C@@H](CCCCN)C(=O)N[C@@H](CCCN=C(N)N)C(=O)N[C@@H](CCC(N)=O)C(=O)N[C@@H](CCC(N)=O)C(N)=O)[C@@H](C)CC` [GLLALISWIKRKRQQ]: the minimum inhibitory concentration (MIC) amounted to 1.22 µM (≈ 2.2 µg/mL) with Bacillus subtilis, 39.1 µM (≈ 70.8 µg/mL) with Escherichia coli and 0.663 µM (≈ 1.2 µg/mL) with Staphylococcus aureus.
For `CC[C@H](C)[C@H](NC(=O)[C@H](CC(C)C)NC(=O)[C@H](C)NC(=O)[C@@H]1CCCN1C(=O)[C@H](CC(C)C)NC(=O)CN)C(=O)N[C@@H](CC(C)C)C(=O)N[C@@H](Cc1c[nH]c2ccccc12)C(=O)N[C@H](C(=O)N[C@@H](CCCCN)C(=O)N[C@@H](CCCN=C(N)N)C(=O)N[C@@H](CCCCN)C(=O)N[C@@H](CCCN=C(N)N)C(=O)N[C@@H](CCC(N)=O)C(=O)N[C@@H](CCC(N)=O)C(N)=O)[C@@H](C)CC` [GLPALILWIKRKRQQ], in that order: 0.352 µM (≈ 0.64 µg/mL), 44.9 µM (≈ 81.7 µg/mL) and 0.769 µM (≈ 1.4 µg/mL).
Turning to `CC[C@H](C)[C@H](N)C(=O)N[C@@H](CC(N)=O)C(=O)N[C@@H](CO)C(=O)N[C@@H](CC(C)C)C(=O)N[C@@H](CCCCN)C(=O)N[C@@H](CC(C)C)C(=O)NCC(=O)N[C@@H](CCCCN)C(=O)N[C@@H](CCCCN)C(=O)N[C@H](C(=O)N[C@@H](CC(C)C)C(=O)NCC(=O)N[C@@H](C)C(=O)N[C@@H](CC(C)C)C(N)=O)[C@@H](C)CC` [INSLKLGKKILGAL], the minimal inhibitory concentration (MIC) against Bacillus subtilis was no less than 100 µM; with Escherichia coli, greater than 100 µM.
Regarding `CC[C@H](C)[C@H](NC(=O)[C@H](CO)NC(=O)[C@H](CCCCN)NC(=O)[C@@H](NC(=O)[C@@H](NC(=O)[C@@H](NC(=O)[C@@H](NC(=O)[C@H](CCCCN)NC(=O)[C@@H](NC(=O)[C@@H](NC(=O)[C@@H](N)CCCCN)[C@@H](C)CC)C(C)C)C(C)C)[C@@H](C)CC)[C@@H](C)O)C(C)C)C(=O)N[C@@H](CO)C(=O)N1CCC[C@H]1C(=O)N[C@@H](C)C(=O)N[C@@H](CO)C(=O)N[C@@H](CC(C)C)C(=O)N[C@H](C(=O)N1CCC[C@H]1C(=O)N[C@H](C(=O)N[C@@H](Cc1ccccc1)C(=O)O)C(C)C)C(C)C` [KIVKVITVKSISPASLVPVF], the MIC in the test on Bacillus cereus was no less than 60.2 µM; against Escherichia coli it was greater than 60.2 µM.
`CC[C@H](C)[C@H](NC(=O)[C@H](CCCCN)NC(=O)[C@H](Cc1ccccc1)NC(=O)[C@@H](NC(=O)[C@H](C)NC(=O)[C@@H]1CCCN1)C(C)C)C(=O)N[C@@H](C)C(=O)N[C@@H](CO)C(=O)N[C@@H](CCCCN)C(=O)N[C@H](C(=O)N[C@H](C(=O)N1CCC[C@H]1C(=O)N[C@@H](CO)C(=O)N[C@H](C(=O)N[C@@H](Cc1ccc(O)cc1)C(=O)N[C@@H](CS)C(=O)N[C@@H](CCCCN)C(=O)N[C@H](C(=O)N[C@@H](CO)C(=O)N[C@@H](CCCN=C(N)N)C(=O)O)C(C)C)C(C)C)C(C)C)C(C)C` [PAVFKIASKVVPSVYCKVSR]: the minimum inhibitory concentration (MIC) is no less than 118 µM in the test with Bacillus cereus and 58.8 µM (≈ 128 µg/mL) against Escherichia coli.
Turning to `CC[C@H](C)[C@H](NC(=O)[C@H](C)NC(=O)[C@H](CCCCN)NC(=O)[C@@H](N)CCC(N)=O)C(=O)N[C@@H](CCCN=C(N)N)C(=O)N[C@H](C(=O)N[C@@H](CCCN=C(N)N)C(=O)N[C@@H](CC(C)C)C(=O)N[C@@H](CO)C(=O)N[C@@H](C)C(=O)O)C(C)C` [QKAIRVRLSA], the MIC in test [1] is 7.01 µM (≈ 8 µg/mL); in test [2] it was 7.01 µM (≈ 8 µg/mL); in test [3] it was greater than 56.1 µM.
For `CC[C@H](C)[C@H](NC(=O)[C@H](CCCCN)NC(=O)[C@H](CCCCN)NC(=O)[C@@H](N)CCC(N)=O)C(=O)N[C@@H](CCCN=C(N)N)C(=O)N[C@@H](C)C(=O)N[C@@H](CCCN=C(N)N)C(=O)N[C@@H](CC(C)C)C(=O)N[C@@H](CO)C(=O)N[C@@H](C)C(=O)O` [QKKIRARLSA], the MIC in test [1], in test [2] and in test [3] was greater than 54.7 µM throughout.
With `CC[C@H](C)[C@H](NC(=O)[C@@H](NC(=O)[C@@H](NC(=O)[C@@H]1CCCN1C(=O)[C@H](Cc1c[nH]c2ccccc12)NC(=O)[C@H](Cc1ccccc1)NC(=O)[C@H](CCCN=C(N)N)NC(=O)[C@H](CCCCN)NC(=O)[C@@H](NC(=O)[C@@H](N)CCCN=C(N)N)[C@@H](C)CC)C(C)C)C(C)C)C(=O)N[C@@H](CCCN=C(N)N)C(=O)N[C@H](C(=O)N[C@H](C(=O)N[C@H](C(=O)N[C@@H](C)C(=O)NCC(=O)N[C@@H](Cc1ccc(O)cc1)C(=O)N[C@@H](CC(N)=O)C(=O)N[C@@H](CC(C)C)C(=O)N[C@@H](Cc1ccc(O)cc1)C(=O)N[C@@H](CCCN=C(N)N)C(=O)O)C(C)C)C(C)C)[C@@H](C)O` [RIKRFWPVVIRTVVAGYNLYR], the MIC in test [4] and in test [1] was 3.6 µM (≈ 9.38 µg/mL) each time.
`NC(=O)[C@H](Cc1ccccc1)NC(=O)[C@H](Cc1ccccc1)NC(=O)[C@H](Cc1ccccc1)NC(=O)[C@H](Cc1ccccc1)NC(=O)[C@@H]1CCCN1C(=O)[C@H](CCCN=C(N)N)NC(=O)[C@@H]1CCCN1C(=O)[C@H](CCCN=C(N)N)NC(=O)[C@@H]1CCCN1C(=O)[C@H](CCCN=C(N)N)NC(=O)[C@@H]1CCCN1C(=O)[C@H](CCCN=C(N)N)NC(=O)[C@@H](N)CCCN=C(N)N` [RRPRPRPRPFFFF]: the MIC in test [1] came to 80 µM (≈ 142 µg/mL); in test [2], 40 µM (≈ 71 µg/mL); in test [3], 20 µM (≈ 35.5 µg/mL).
For `CC(C)[C@H](NC(=O)[C@H](Cc1c[nH]c2ccccc12)NC(=O)[C@H](Cc1c[nH]c2ccccc12)NC(=O)[C@@H](N)CCCN=C(N)N)C(=O)N[C@@H](C)C(=O)N[C@@H](Cc1c[nH]c2ccccc12)C(=O)N[C@@H](CCCN=C(N)N)C(=O)N[C@@H](CC(N)=O)C(=O)N[C@@H](CCCN=C(N)N)C(=O)O` [RWWVAWRNR], the results for the MIC in test [1] and in test [3] were 47 µM (≈ 62.5 µg/mL) and 94 µM (≈ 125 µg/mL), respectively.
For `CC[C@H](C)[C@H](NC(=O)[C@@H](NC(=O)[C@H](C)NC(=O)[C@H](CCCN=C(N)N)NC(=O)[C@H](CC(N)=O)NC(=O)[C@H](Cc1ccccc1)NC(=O)[C@H](CO)NC(=O)[C@@H](N)C(C)C)C(C)C)C(=O)N[C@@H](Cc1cnc[nH]1)C(=O)N[C@@H](CO)C(=O)N[C@@H](CC(C)C)C(=O)N[C@@H](CC(C)C)C(=O)NCC(N)=O` [VSFNRAVIHSLLG] the same measures were greater than 496 µM and greater than 496 µM.
